Measured values published in PubChem BioAssay AID2060497 (Molecular Pharmacology Branch, DTP, NCI, 2025).

System: 317291-083-R-J1-PDC complex spheroids, viability
Assay: Anticancer human tumor 317291-083-R-J1-PDC patient-derived soft tissue sarcoma cell line growth inhibition [GQUAD]
Conditions: for IC50: curve of first compound; for viability, T/C: stronger effect = lower value
How it was run: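 Multi-cell-type spheroids of tumor cells with HUVEC and mesenchymal stem cells, treated with drug combinations. Concentrations descend in half-log steps from near clinical Cmax, or from 10 microM where Cmax is unknown; viability read-out.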

[1] = second compound 0.0316 µM, first compound 0.0316 µM
[2] = second compound 0.0316 µM, first compound 0.1 µM
[3] = second compound 0.0316 µM, first compound 0.316 µM
[4] = second compound 0.0316 µM, first compound 1 µM
[5] = second compound 0.0316 µM, first compound 3.16 µM
[6] = second compound 0.0316 µM, first compound 10 µM
[7] = second compound 0.1 µM, first compound 0.0316 µM
[8] = second compound 0.1 µM, first compound 0.1 µM
[9] = second compound 0.1 µM, first compound 0.316 µM
[10] = second compound 0.1 µM, first compound 1 µM
[11] = second compound 0.1 µM, first compound 3.16 µM
[12] = second compound 0.1 µM, first compound 10 µM
[13] = second compound 0.316 µM, first compound 0.0316 µM
[14] = second compound 0.316 µM, first compound 0.1 µM
[15] = second compound 0.316 µM, first compound 0.316 µM
[16] = second compound 0.316 µM, first compound 1 µM
[17] = second compound 0.316 µM, first compound 3.16 µM
[18] = second compound 0.316 µM, first compound 10 µM
[19] = second compound 1 µM, first compound 0.0316 µM
[20] = second compound 1 µM, first compound 0.1 µM
[21] = second compound 1 µM, first compound 0.316 µM
[22] = second compound 1 µM, first compound 1 µM
[23] = second compound 1 µM, first compound 3.16 µM
[24] = second compound 1 µM, first compound 10 µM
[25] = second compound 3.16 µM, first compound 0.0316 µM
[26] = second compound 3.16 µM, first compound 0.1 µM
[27] = second compound 3.16 µM, first compound 0.316 µM
[28] = second compound 3.16 µM, first compound 1 µM
[29] = second compound 3.16 µM, first compound 3.16 µM
[30] = second compound 3.16 µM, first compound 10 µM
[31] = second compound 10 µM, first compound 0.0316 µM
[32] = second compound 10 µM, first compound 0.1 µM
[33] = second compound 10 µM, first compound 0.316 µM
[34] = second compound 10 µM, first compound 1 µM
[35] = second compound 10 µM, first compound 3.16 µM
[36] = second compound 10 µM, first compound 10 µM
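Further: spheroids exposed to compounds for one week before readout.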
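Wherever viability, T/C is given: percent viability relative to DMSO vehicle wells taken as 100%.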

Compound `CC(C)n1c(=O)n(C)c2cnc3cc(F)c(-c4ccc(OCCCN5CCCCC5)nc4)cc3c21` + CN(C)c1ccc(Nc2c3ccc(NC(=O)CCN4CCCC4)cc3nc3cc(NC(=O)CCN4CCCC4)ccc23)cc1 has an IC50 (second compound 0.0316 µM) of 6620 nM, an IC50 (second compound 0.1 µM) of 3820 nM and an IC50 (second compound 0.316 µM) of 784 nM. For the same compound, the IC50 (second compound 1 µM) was 42.8 nM, the IC50 (second compound 3.16 µM) was < 31.6 nM and the IC50 (second compound 10 µM) was < 31.6 nM. The viability, T/C [1] was 96.6%, the viability, T/C [2] was 88.6% and the viability, T/C [3] was 92.1%. The viability, T/C [4] was 86.7%, the viability, T/C [5] was 79% and the viability, T/C [6] was 34.3%. For the same compound, the viability, T/C [7] was 92.9%, the viability, T/C [8] was 79.9% and the viability, T/C [9] was 96.3%. For the same compound, the viability, T/C [10] was 81.9%, the viability, T/C [11] was 56% and the viability, T/C [12] was 20.6%. It also gave a viability, T/C [13] of 92.8%, a viability, T/C [14] of 65% and a viability, T/C [15] of 57.6%. For the same compound, the viability, T/C [16] was 47.2%, the viability, T/C [17] was 49.6% and the viability, T/C [18] was 10.5%. It also gave a viability, T/C [19] of 53.7%, a viability, T/C [20] of 44.7% and a viability, T/C [21] of 24.4%. For the same compound, the viability, T/C [22] was 34.4%, the viability, T/C [23] was 20.1% and the viability, T/C [24] was 7.52%. For the same compound, the viability, T/C [25] was 31.8%, the viability, T/C [26] was 12.2% and the viability, T/C [27] was 12.3%. It also gave a viability, T/C [28] of 4.69%, a viability, T/C [29] of 4.81% and a viability, T/C [30] of 1.25%. For the same compound, the viability, T/C [31] was 27.5%, the viability, T/C [32] was 3.95% and the viability, T/C [33] was 0.88%. It also gave a viability, T/C [34] of 0.42%, a viability, T/C [35] of 0.55% and a viability, T/C [36] of 4.73%.

In the case of `COc1ncnc(C2CC2)c1-c1ncc2cnn(Cc3ccc(-c4nc(C(F)(F)F)cn4C(C)C)cc3)c2n1` + CN(C)c1ccc(Nc2c3ccc(NC(=O)CCN4CCCC4)cc3nc3cc(NC(=O)CCN4CCCC4)ccc23)cc1, the IC50 (second compound 0.0316 µM) is reported as > 10000 nM, the IC50 (second compound 0.1 µM) is reported as > 10000 nM and the IC50 (second compound 0.316 µM) is reported as < 31.6 nM. For the same compound, the IC50 (second compound 1 µM) was < 31.6 nM, the IC50 (second compound 3.16 µM) was < 31.6 nM and the IC50 (second compound 10 µM) was < 31.6 nM. For the same compound, the viability, T/C [1] was 88.5%, the viability, T/C [2] was 77.1% and the viability, T/C [3] was 69%. For the same compound, the viability, T/C [4] was 70.3%, the viability, T/C [5] was 64.3% and the viability, T/C [6] was 59.9%. The viability, T/C [7] was 79.9%, the viability, T/C [8] was 61.4% and the viability, T/C [9] was 65.9%. The viability, T/C [10] was 61.4%, the viability, T/C [11] was 51.6% and the viability, T/C [12] was 60.2%. It also gave a viability, T/C [13] of 48.2%, a viability, T/C [14] of 44.2% and a viability, T/C [15] of 41.9%. It also gave a viability, T/C [16] of 37.4%, a viability, T/C [17] of 37.4% and a viability, T/C [18] of 36.1%. It also gave a viability, T/C [19] of 32.4%, a viability, T/C [20] of 50.2% and a viability, T/C [21] of 35.7%. For the same compound, the viability, T/C [22] was 16.5%, the viability, T/C [23] was 26.6% and the viability, T/C [24] was 17.3%. The viability, T/C [25] was 33.4%, the viability, T/C [26] was 2.38% and the viability, T/C [27] was 3.48%. It also gave a viability, T/C [28] of 1.13%, a viability, T/C [29] of 2.41% and a viability, T/C [30] of 1.37%. The viability, T/C [31] was 0.61%, the viability, T/C [32] was 0.24% and the viability, T/C [33] was 0.23%. The viability, T/C [34] was 0.23%, the viability, T/C [35] was 0.28% and the viability, T/C [36] was 0.22%.

`O=c1[nH]cc(F)c(=O)[nH]1` + Cc1cnc(CNC(=O)c2c(=O)c3ccc(N4CCCN(C)CC4)nc3n3c2sc2ccccc23)cn1 showed an IC50 (second compound 0.0316 µM) of 2110 nM, an IC50 (second compound 0.1 µM) of 1800 nM and an IC50 (second compound 0.316 µM) of 526 nM. For the same compound, the IC50 (second compound 1 µM) was < 31.6 nM, the IC50 (second compound 3.16 µM) was < 31.6 nM and the IC50 (second compound 10 µM) was < 31.6 nM. For the same compound, the viability, T/C [1] was 101%, the viability, T/C [2] was 96.3% and the viability, T/C [3] was 103%. The viability, T/C [4] was 64.6%, the viability, T/C [5] was 44.3% and the viability, T/C [6] was 24.6%. It also gave a viability, T/C [7] of 68.2%, a viability, T/C [8] of 69.3% and a viability, T/C [9] of 60.9%. The viability, T/C [10] was 79.8%, the viability, T/C [11] was 31.3% and the viability, T/C [12] was 24.7%. For the same compound, the viability, T/C [13] was 51.8%, the viability, T/C [14] was 50.6% and the viability, T/C [15] was 71.5%. For the same compound, the viability, T/C [16] was 40%, the viability, T/C [17] was 34.7% and the viability, T/C [18] was 23.3%. It also gave a viability, T/C [19] of 35.2%, a viability, T/C [20] of 25.6% and a viability, T/C [21] of 31%. For the same compound, the viability, T/C [22] was 32.7%, the viability, T/C [23] was 23.6% and the viability, T/C [24] was 22.5%. For the same compound, the viability, T/C [25] was 31.2%, the viability, T/C [26] was 29.8% and the viability, T/C [27] was 25.6%. For the same compound, the viability, T/C [28] was 49.5%, the viability, T/C [29] was 22.6% and the viability, T/C [30] was 15.1%. For the same compound, the viability, T/C [31] was 21.4%, the viability, T/C [32] was 28% and the viability, T/C [33] was 14.6%. For the same compound, the viability, T/C [34] was 26.5%, the viability, T/C [35] was 25.7% and the viability, T/C [36] was 16.4%.

With `CC(=O)O[C@H]1C(=O)[C@@]2(C)[C@H]([C@H](OC(=O)c3ccccc3)[C@]3(O)C[C@H](OC(=O)[C@H](O)[C@@H](NC(=O)c4ccccc4)c4ccccc4)C(C)=C1C3(C)C)[C@]1(OC(C)=O)CO[C@@H]1C[C@@H]2O` + Cc1cnc(CNC(=O)c2c(=O)c3ccc(N4CCCN(C)CC4)nc3n3c2sc2ccccc23)cn1 the IC50 (second compound 0.0316 µM) was < 31.6 nM, the IC50 (second compound 0.1 µM) was < 31.6 nM and the IC50 (second compound 0.316 µM) was < 31.6 nM. The IC50 (second compound 1 µM) was < 31.6 nM, the IC50 (second compound 3.16 µM) was < 31.6 nM and the IC50 (second compound 10 µM) was < 31.6 nM. The viability, T/C [1] was 29.2%, the viability, T/C [2] was 14.9% and the viability, T/C [3] was 8.69%. It also gave a viability, T/C [4] of 9.72%, a viability, T/C [5] of 11.3% and a viability, T/C [6] of 9.08%. The viability, T/C [7] was 25.4%, the viability, T/C [8] was 8.37% and the viability, T/C [9] was 11.1%. The viability, T/C [10] was 8.92%, the viability, T/C [11] was 10% and the viability, T/C [12] was 10.2%. It also gave a viability, T/C [13] of 17.5%, a viability, T/C [14] of 12.3% and a viability, T/C [15] of 8.21%. For the same compound, the viability, T/C [16] was 9.2%, the viability, T/C [17] was 7.36% and the viability, T/C [18] was 8.93%. It also gave a viability, T/C [19] of 17.8%, a viability, T/C [20] of 10.5% and a viability, T/C [21] of 8.43%. It also gave a viability, T/C [22] of 11.4%, a viability, T/C [23] of 8.77% and a viability, T/C [24] of 9.02%. The viability, T/C [25] was 14.3%, the viability, T/C [26] was 7.98% and the viability, T/C [27] was 11.2%. The viability, T/C [28] was 5.02%, the viability, T/C [29] was 14.6% and the viability, T/C [30] was 5.59%. It also gave a viability, T/C [31] of 0.22%, a viability, T/C [32] of 11.5% and a viability, T/C [33] of 7.59%. It also gave a viability, T/C [34] of 1.49%, a viability, T/C [35] of 0.95% and a viability, T/C [36] of 0.58%.
